Reference: publication PMC7316994, “In Vitro Pharmacological Profile of a New Small Molecule Bradykinin B2 Receptor Antagonist” (Frontiers in Pharmacology, 2020)

Legend:
[1] = molecular target: T1, dog B2 receptor (Canis lupus familiaris, UniProt Q9BDQ4); assay: Ca^2+ mobilization assay, HEK293T cells; format: cell-based
T1 sequence (Q9BDQ4 1-392): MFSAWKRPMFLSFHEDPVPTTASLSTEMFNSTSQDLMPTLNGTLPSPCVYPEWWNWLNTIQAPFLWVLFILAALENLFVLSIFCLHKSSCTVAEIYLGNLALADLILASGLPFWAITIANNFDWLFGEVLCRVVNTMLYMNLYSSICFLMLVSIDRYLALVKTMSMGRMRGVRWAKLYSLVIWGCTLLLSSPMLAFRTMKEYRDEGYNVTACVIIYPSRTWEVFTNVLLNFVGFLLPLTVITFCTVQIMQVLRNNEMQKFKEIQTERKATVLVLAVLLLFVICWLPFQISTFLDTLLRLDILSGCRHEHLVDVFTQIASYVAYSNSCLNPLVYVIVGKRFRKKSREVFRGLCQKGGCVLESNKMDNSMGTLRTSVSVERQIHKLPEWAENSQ

[2] = molecular target: T2, B2 receptor (Homo sapiens, UniProt P30411); assay: reversibility of antagonism after washout, umbilical vein; conditions: for EC50: BK EC50 (nM)
T2 sequence (P30411 1-391): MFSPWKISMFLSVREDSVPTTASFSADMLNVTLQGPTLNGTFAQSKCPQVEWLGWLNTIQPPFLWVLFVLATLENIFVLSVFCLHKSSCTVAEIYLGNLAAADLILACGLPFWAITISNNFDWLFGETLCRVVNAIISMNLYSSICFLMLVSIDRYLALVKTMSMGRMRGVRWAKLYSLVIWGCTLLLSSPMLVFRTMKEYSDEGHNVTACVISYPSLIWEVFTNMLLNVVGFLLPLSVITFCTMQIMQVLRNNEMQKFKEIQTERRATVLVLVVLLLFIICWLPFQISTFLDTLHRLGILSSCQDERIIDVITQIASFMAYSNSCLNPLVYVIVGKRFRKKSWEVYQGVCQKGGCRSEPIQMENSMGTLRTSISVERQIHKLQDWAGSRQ

[3] = molecular target: T3, Chemokine CCR2B (Homo sapiens, UniProt P41597); assay: radioligand binding (Table S2); conditions: [125I] MCP-1, Human recombinant CHO-K1 cells
T3 construct: host or cells: CHO-K1 cells
T3 sequence (P41597 1-360 isoform P41597-2): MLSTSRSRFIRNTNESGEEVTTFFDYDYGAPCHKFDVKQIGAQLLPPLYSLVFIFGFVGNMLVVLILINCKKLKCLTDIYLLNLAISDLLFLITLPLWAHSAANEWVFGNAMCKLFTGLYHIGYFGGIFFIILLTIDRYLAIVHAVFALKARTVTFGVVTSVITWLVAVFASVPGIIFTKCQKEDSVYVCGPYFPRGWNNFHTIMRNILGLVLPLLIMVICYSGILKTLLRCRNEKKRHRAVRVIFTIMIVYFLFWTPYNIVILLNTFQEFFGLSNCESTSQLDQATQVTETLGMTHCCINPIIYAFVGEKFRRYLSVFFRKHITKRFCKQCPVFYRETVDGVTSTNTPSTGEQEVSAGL

[4] = molecular target: T4, Cysteinyl leukotriene receptor CysLT1 (Homo sapiens, UniProt Q9Y271); assay: radioligand binding (Table S2); conditions: [3H] LTD4, Human recombinant CHO cells
T4 construct: host or cells: CHO cells
T4 sequence (Q9Y271 whole entry): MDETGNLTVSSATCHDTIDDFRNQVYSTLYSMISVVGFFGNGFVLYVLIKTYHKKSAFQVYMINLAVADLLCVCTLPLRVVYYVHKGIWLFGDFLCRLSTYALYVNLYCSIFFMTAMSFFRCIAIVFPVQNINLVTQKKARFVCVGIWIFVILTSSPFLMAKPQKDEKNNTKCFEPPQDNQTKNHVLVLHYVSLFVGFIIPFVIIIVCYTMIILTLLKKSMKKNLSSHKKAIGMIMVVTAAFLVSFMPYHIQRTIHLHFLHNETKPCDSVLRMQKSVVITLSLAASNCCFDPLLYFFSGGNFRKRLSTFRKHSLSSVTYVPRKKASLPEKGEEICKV

[5] = molecular target: T5, Dopamine D3 (Homo sapiens, UniProt P35462); assay: radioligand binding (Table S2); conditions: [3H] Methylspiperone, Human recombinant CHO cells
T5 construct: host or cells: CHO cells
T5 sequence (P35462 whole entry): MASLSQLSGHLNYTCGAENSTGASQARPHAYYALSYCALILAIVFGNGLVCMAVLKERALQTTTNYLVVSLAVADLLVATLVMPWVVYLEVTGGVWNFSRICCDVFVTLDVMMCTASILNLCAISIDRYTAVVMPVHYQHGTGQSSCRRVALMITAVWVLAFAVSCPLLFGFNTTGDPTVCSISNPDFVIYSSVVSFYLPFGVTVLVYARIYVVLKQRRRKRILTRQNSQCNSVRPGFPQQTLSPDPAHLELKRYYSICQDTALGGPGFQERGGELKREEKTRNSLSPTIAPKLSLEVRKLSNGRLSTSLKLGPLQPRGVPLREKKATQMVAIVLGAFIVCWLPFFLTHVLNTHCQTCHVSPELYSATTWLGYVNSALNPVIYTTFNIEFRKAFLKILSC

[6] = molecular target: T6, Neurokinin NK3 (Homo sapiens, UniProt P29371); assay: radioligand binding (Table S2); conditions: [3H] SR 142801, Human recombinant CHO cells
T6 construct: host or cells: CHO cells
T6 sequence (P29371 1-465): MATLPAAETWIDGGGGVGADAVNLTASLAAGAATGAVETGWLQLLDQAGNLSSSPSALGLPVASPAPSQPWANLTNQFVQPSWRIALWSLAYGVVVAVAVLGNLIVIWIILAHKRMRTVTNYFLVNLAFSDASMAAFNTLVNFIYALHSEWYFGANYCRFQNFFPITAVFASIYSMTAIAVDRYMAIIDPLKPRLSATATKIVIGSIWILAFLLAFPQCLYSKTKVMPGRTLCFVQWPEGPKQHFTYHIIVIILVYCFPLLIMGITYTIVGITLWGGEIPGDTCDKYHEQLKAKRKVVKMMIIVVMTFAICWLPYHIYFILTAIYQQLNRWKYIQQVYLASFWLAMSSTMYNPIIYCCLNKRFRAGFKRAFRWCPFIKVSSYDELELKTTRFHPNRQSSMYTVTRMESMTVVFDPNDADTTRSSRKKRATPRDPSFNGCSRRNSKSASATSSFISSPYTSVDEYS

[7] = molecular target: T7, Neuropeptide Y1 (Homo sapiens, UniProt P25929); assay: radioligand binding (Table S2); conditions: [125I] Peptide YY, SK-N-MC cells (endogenous)
T7 construct: (endogenous); host or cells: SK-N-MC cells
T7 sequence (P25929 whole entry): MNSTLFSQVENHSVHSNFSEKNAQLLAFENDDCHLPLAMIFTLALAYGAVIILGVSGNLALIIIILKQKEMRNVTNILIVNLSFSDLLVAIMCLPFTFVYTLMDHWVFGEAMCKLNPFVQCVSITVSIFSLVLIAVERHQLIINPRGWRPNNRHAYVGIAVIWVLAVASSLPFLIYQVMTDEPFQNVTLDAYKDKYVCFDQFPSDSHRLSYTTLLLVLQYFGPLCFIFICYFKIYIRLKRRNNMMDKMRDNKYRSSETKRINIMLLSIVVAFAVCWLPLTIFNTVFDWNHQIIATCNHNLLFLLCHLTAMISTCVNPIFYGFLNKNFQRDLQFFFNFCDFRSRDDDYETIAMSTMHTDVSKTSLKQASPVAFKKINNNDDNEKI

[8] = molecular target: T8, Opioid δ (DOP) (Homo sapiens, UniProt P41143); assay: radioligand binding (Table S2); conditions: [3H] DADLE, Human recombinant CHO cells
T8 construct: host or cells: CHO cells
T8 sequence (P41143 whole entry): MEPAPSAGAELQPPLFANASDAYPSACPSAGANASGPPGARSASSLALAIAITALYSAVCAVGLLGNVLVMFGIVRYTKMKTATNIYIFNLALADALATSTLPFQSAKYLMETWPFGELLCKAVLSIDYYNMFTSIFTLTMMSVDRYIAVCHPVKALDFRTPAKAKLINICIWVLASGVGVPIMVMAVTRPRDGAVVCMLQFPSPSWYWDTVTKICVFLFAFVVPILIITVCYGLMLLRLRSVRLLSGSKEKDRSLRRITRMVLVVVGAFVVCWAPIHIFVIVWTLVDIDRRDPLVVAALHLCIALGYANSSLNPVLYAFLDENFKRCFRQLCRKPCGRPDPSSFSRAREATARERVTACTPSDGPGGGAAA

[9] = molecular target: T9, Opioid nociceptin NOP (ORL1) (Homo sapiens, UniProt P41146); assay: radioligand binding (Table S2); conditions: [3H] Nociceptin, Human recombinant HEK-293 cells
T9 construct: host or cells: HEK-293 cells
T9 sequence (P41146 whole entry): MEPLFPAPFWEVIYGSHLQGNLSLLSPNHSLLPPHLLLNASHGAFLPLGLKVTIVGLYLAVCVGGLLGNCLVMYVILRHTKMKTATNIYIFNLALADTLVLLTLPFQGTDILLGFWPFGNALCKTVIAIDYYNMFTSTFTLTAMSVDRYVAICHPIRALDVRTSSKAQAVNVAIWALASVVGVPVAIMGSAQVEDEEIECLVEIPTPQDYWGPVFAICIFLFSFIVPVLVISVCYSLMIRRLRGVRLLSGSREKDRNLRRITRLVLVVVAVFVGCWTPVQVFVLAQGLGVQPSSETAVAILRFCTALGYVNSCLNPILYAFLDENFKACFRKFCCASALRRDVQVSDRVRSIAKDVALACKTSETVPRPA

[10] = molecular target: T10, Prostanoid EP2 (Homo sapiens, UniProt P43116); assay: radioligand binding (Table S2); conditions: [3H] Prostaglandin E2, Human recombinant HEK-293 cells
T10 construct: host or cells: HEK-293 cells
T10 sequence (P43116 whole entry): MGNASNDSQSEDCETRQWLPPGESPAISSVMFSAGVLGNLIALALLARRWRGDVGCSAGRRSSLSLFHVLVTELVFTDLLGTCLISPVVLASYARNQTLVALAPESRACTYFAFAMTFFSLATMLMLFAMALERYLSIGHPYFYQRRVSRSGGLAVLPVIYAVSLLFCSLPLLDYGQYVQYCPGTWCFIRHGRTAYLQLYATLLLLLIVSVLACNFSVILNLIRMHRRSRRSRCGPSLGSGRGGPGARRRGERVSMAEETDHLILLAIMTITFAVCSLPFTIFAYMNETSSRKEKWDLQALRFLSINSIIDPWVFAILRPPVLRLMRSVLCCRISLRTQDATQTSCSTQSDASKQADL

[11] = molecular target: Somatostatin sst1 (Homo sapiens, UniProt P30872); assay: radioligand binding (Table S2); conditions: [125I] Tyr11-Somatostatin 14, Human recombinant CHO-S cells
Somatostatin sst1, sequence (P30872 whole entry): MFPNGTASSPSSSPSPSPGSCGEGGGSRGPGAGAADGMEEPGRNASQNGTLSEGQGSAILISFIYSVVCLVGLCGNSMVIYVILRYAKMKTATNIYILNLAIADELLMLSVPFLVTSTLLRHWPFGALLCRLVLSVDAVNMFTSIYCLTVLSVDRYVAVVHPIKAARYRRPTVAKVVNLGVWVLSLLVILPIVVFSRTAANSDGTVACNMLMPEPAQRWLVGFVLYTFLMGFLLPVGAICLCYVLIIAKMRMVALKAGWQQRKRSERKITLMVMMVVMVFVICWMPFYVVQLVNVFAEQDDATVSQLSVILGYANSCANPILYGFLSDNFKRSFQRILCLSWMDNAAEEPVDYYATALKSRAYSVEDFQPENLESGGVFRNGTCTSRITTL

[12] = molecular target: T11, COX1 (Homo sapiens, UniProt P23219); assay: enzyme assay (Table S2); format: biochemical; conditions: Arachidonic acid (3 µM) + ADHP, Fluorimetry
T11 construct: Eurofins (assay provider)
T11 sequence (P23219 24-599): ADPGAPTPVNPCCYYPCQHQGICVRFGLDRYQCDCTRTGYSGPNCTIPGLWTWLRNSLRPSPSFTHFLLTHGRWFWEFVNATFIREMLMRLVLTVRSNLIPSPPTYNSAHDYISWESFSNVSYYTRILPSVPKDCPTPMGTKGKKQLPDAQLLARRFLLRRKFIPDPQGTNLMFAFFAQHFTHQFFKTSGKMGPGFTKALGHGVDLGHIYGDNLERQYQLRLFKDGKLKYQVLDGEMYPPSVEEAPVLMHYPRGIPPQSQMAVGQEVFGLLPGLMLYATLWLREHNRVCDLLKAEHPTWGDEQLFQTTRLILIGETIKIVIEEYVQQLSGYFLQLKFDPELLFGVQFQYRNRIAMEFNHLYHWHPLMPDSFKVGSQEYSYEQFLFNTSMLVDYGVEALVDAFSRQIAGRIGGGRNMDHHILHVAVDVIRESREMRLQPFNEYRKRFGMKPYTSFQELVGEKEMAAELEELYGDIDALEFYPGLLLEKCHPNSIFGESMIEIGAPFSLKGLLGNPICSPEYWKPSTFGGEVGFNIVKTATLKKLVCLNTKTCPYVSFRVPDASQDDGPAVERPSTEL

[13] = molecular target: T12, IRK (InsR) (Homo sapiens, UniProt P06213); assay: enzyme assay (Table S2); format: biochemical; conditions: ATP + Ulight-PolyGAT (50 nM), LANCE
T12 construct: Eurofins (assay provider)

[14] = molecular target: Lck kinase (Homo sapiens, UniProt P06239); assay: enzyme assay (Table S2); format: biochemical; conditions: ATP + Ulight-PolyGAT (25 nM), LANCE
Lck kinase, sequence (P06239 whole entry): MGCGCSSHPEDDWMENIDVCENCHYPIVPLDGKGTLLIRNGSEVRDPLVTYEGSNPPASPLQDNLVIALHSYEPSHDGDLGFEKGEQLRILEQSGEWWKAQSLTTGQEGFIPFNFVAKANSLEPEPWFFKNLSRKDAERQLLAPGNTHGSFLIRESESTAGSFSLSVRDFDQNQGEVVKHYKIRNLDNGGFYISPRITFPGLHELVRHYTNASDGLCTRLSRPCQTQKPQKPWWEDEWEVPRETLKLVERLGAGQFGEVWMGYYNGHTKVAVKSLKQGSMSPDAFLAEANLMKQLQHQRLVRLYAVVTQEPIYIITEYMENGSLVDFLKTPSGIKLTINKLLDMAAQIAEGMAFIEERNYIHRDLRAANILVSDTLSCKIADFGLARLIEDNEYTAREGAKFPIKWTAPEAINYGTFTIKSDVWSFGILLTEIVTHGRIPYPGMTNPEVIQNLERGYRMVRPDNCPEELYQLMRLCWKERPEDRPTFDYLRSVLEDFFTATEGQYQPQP

[15] = molecular target: PDE5 (non-selective) (Homo sapiens, UniProt O76074); assay: enzyme assay (Table S2); format: biochemical; conditions: Human platelets, [3H]cGMP + cGMP (1 µM)
[16] = molecular target: PKCα (Homo sapiens, UniProt P17252); assay: enzyme assay (Table S2); format: biochemical; conditions: HTRF
[17] = molecular target: T6, Neurokinin NK3; assay: functional assay, intracellular [Ca2+], CHO cells (Table S2); format: cell-based

SMILES: Cc1cc(-c2ncnn2C)c2cccc(OCc3c(Cl)cc(F)cc3[C@H](C)NC(=O)COC(F)F)c2n1 [Compound 3, (S)-N-(1-(3-chloro-5-fluoro-2-((2-methyl-4-(1-methyl-1H-1,2,4-triazol-5-yl)quinolin-8-yloxy)methyl)phenyl)ethyl)-2-(difluoromethoxy)acetamide]
- IC50 [1]: ~7600 nM
- Kb [1]: ~2700 nM
- reversibility of antagonism after washout ([2]; 100 nM): partial or slow reversibility
- reversibility of antagonism after washout ([2]; 1 and 10 nM): fully reversible
- EC50 ([2]; after washout, 5 h, washout after Compound 3 1 nM, 5 h, vehicle washout 20.8 nM): 22 nM
- EC50 ([2]; after washout, 5 h, washout after Compound 3 10 nM, 5 h, vehicle washout 20.8 nM): 38.5 nM
- EC50 ([2]; after washout, 5 h, washout after Compound 3 100 nM, 5 h, vehicle washout 11.7 nM): 84.1 nM
- EC50 ([2]; antagonist present, 3 h, Compound 3 1 nM, vehicle 3 h 18.7 nM): 67.4 nM
- EC50 ([2]; antagonist present, 3 h, Compound 3 10 nM, vehicle 3 h 18.7 nM): 225 nM
- EC50 ([2]; antagonist present, 3 h, Compound 3 100 nM, vehicle 3 h 7.5 nM): 713 nM
- inhibition at 10 µM [3]: 1%
- inhibition at 10 µM [4]: -2.2%
- inhibition at 10 µM [5]: 4.8%
- inhibition at 10 µM [6]: 6.1%
- inhibition at 10 µM [7]: -2.6%
- inhibition at 10 µM [8]: 10.6%
- inhibition at 10 µM [9]: 14.5%
- inhibition at 10 µM [10]: 12%
- inhibition at 10 µM [11]: -2%
- inhibition at 10 µM [12]: -9.3%
- inhibition at 10 µM [13]: -17.3%
- inhibition at 10 µM [14]: 9.5%
- inhibition at 10 µM [15]: 15.5%
- inhibition at 10 µM [16]: 1.4%
- % of reference agonist response @ 10 µM (agonist effect) ([17]; 10 µM, reference [MePhe7]-NKB (30 nM)): 7.0%
- inhibition at 10 µM ([17]; CHO, read-out: % inhibition of reference agonist response @ 10 µM (antagonist effect), 10 µM, [MePhe7]-NKB (1 nM)): 40.8%
- IC50 ([17]; [MePhe7]-NKB (1 nM), read-out: IC50 (µM), functional antagonism): 17 µM
- Kb ([17]; [MePhe7]-NKB (1 nM), read-out: Kb (µM), functional antagonism): 1.6 µM
